Patent US9756864B2

How the values were obtained:
Sphaerotheca fuliginea = assay: Sphaerotheca test (cucumbers)/preventive; settings: preventive spray, 7 days after inoculation
Protocol: Sphaerotheca Test (Cucumbers)/Preventive
After the spray coating has dried on, the plants are inoculated with an aqueous spore suspension of Sphaerotheca fuliginea. The plants are then placed in a greenhouse at approximately 23° C. and a relative atmospheric humidity of approximately 70%.
The test is evaluated 7 days after the inoculation.

Venturia inaequalis = assay: Venturia test (apples)/preventive; settings: preventive spray, 10 days after inoculation
Protocol: Venturia Test (Apples)/Preventive
After the spray coating has dried on, the plants are inoculated with an aqueous conidia suspension of the causal agent of apple scab (Venturia inaequalis) and then remain for 1 day in an incubation cabinet at approximately 20° C. and a relative atmospheric humidity of 100%.
The plants are then placed in a greenhouse at approximately 21° C. and a relative atmospheric humidity of approximately 90%.
The test is evaluated 10 days after the inoculation.

Alternaria solani = assay: Alternaria test (tomatoes)/preventive; settings: preventive spray, 3 days after inoculation
Protocol: The application rate of QST30002 refers to the amount of dried Bacillus subtilis AQ30002 aka QST300202 (NRRL Accession No. B-50421.
After the spray coating has dried on, the plants are inoculated with an aqueous spore suspension of Alternaria solani. The plants are then placed in an incubation cabinet at approximately 20° C. and a relative atmospheric humidity of 100%.
The test is evaluated 3 days after the inoculation.

Phytophthora infestans = assay type: in vivo; settings: Table A; 100 ppm a.i.; tomatoes, preventive spray; 3 days after inoculation
Botrytis cinerea = assay: Botrytis test (beans)/preventive; settings: Table E, 100 ppm a.i., preventive spray, lesion size 2 days after inoculation
Protocol: Botrytis Test (Beans)/Preventive
After the spray coating has dried on, 2 small pieces of agar covered with growth of Botrytis cinerea are placed on each leaf. The inoculated plants are placed in a darkened chamber at 20° C. and a relative atmospheric humidity of 100%.
2 days after the inoculation, the size of the lesions on the leaves is evaluated.

## O=C(NCCc1ncc(C(F)(F)F)cc1Cl)c1ccccc1C(F)(F)F [F70 fluopyram, fluopyram]
Sphaerotheca fuliginea; Table C2, 4 ppm a.i.
  Efficacy in % found (activity found): 10%
Venturia inaequalis; Table B1, 4 ppm a.i.
  Efficacy in % found (activity found): 4%
Alternaria solani; Table D1, 4 ppm a.i.
  Efficacy in % found (activity found): 33%

## CC(C)Oc1cccc(NC(=O)c2ccccc2C(F)(F)F)c1 [F71 flutolanil, flutolanil]
Sphaerotheca fuliginea; Table C1, 100 ppm a.i.
  Efficacy in % found (activity found): 0%
Venturia inaequalis; Table B2, 100 ppm a.i.
  Efficacy in % found (activity found): 4%
Alternaria solani; Table D2, 50 ppm a.i.
  Efficacy in % found (activity found): 43%
Phytophthora infestans
  Efficacy in % found (activity found): 33%
Botrytis cinerea
  Efficacy in % found (activity found): 0%

## Cn1cc(C(=O)Nc2ccccc2-c2cc(F)c(F)c(F)c2)c(C(F)F)n1 [F72 fluxapyroxad, fluxapyroxad]
Sphaerotheca fuliginea; Table C2, 1 ppm a.i.
  Efficacy in % found (activity found): 29%
Venturia inaequalis; Table B1, 0.5 ppm a.i.
  Efficacy in % found (activity found): 43%
Alternaria solani; Table D1, 1 ppm a.i.
  Efficacy in % found (activity found): 47%

## Cc1nn(C)c(F)c1C(=O)Nc1ccccc1C(C)CC(C)C (stereo not shown) [F84 penflufen, penflufen]
Sphaerotheca fuliginea; Table C2, 2 ppm a.i.
  Efficacy in % found (activity found): 0%
Venturia inaequalis; Table B1, 2 ppm a.i.
  Efficacy in % found (activity found): 0%
